The values that follow come from US12102648B2, “Orally-bioavailable nucleoside analogs” (priority 2021, dated 2024).

One data set in a line: in vitro. The format is in vitro ADME. Particulars: human, Caco-2. Summed up: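 Permeability measured in both directions across 19-day Caco-2 layers with TEER above 600 […], incubated at 37° C without shaking; donor and receiver sampled at 10 and 90 min for LC/MS/MS. Derived values: Papp (cm/s), efflux ratio, recovery.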
For orientation: Papp A→B means the apparent permeability from the apical to the basolateral side of a cell layer. A word on the Papp B→A: it is the apparent permeability from the basolateral to the apical side of a cell layer. In the case of `CC(C)C(=O)OC[C@H]1O[C@@](C#N)(c2ccc3c(N)ncnn23)[C@H](O)[C@@H]1OCOC(=O)C(C)(C)C` [Compound 64, (((2R,3S,4R,5R)-5-(4-aminopyrrolo[2,1-f][1,2,4]triazin-7-yl)-5-cyano-4-hydroxy-2-((isobutyryloxy)methyl)tetrahydrofuran-3-yl)oxy)methyl pivalate], the Papp A→B at 90 min was determined as 5.9 ×10⁻⁶ cm/s, the basolateral-to-apical permeability (Papp B→A) at 90 min turned out to be 7.1 ×10⁻⁶ cm/s and the efflux ratio at 90 min worked out at 1.2.
Turning to `CCC(=O)O[C@H]1[C@@H](O)[C@](C#N)(c2ccc3c(N)ncnn23)O[C@@H]1COC(=O)CC(C)C` [Compound 23, ((2R,3S,4R,5R)-5-(4-aminopyrrolo[2,1-f][1,2,4]triazin-7-yl)-5-cyano-4-hydroxy-3-(propionyloxy)tetrahydrofuran-2-yl)methyl 3-methylbutanoate], the Papp A→B at 90 min is 6.3 ×10⁻⁶ cm/s, the basolateral-to-apical permeability (Papp B→A) at 90 min turned out to be 8.1 ×10⁻⁶ cm/s and the efflux ratio at 90 min came to 1.3.
`CC(C)CC(=O)OC[C@H]1O[C@@](C#N)(c2ccc3c(NC(=O)[C@@H](N)C(C)C)ncnn23)[C@H](O)[C@@H]1O` [Compound 117, [(2R,3S,4R,5R)-5-{4-[(2S)-2-amino-3-methylbutanamido]pyrrolo[2,1-f][1,2,4]triazin-7-yl}-5-cyano-3,4-dihydroxyoxolan-2-yl]methyl 3-methylbutanoate]: the Papp A→B at 90 min is 0.22 ×10⁻⁶ cm/s, the Papp B→A at 90 min came out at 3.3 ×10⁻⁶ cm/s and the efflux ratio at 90 min is 15.
As for `CCC(=O)OC[C@H]1O[C@@](C#N)(c2ccc3c(N)ncnn23)[C@H](O)[C@@H]1OC(=O)[C@@H](N)C(C)C` [Compound 67, (2R,3S,4R,5R)-5-{4-aminopyrrolo[2,1-f][1,2,4]triazin-7-yl}-5-cyano-4-hydroxy-2-[(propanoyloxy)methyl]oxolan-3-yl(2S)-2-amino-3-methylbutanoate], the Papp A→B at 90 min turned out to be 0.3 ×10⁻⁶ cm/s, the apparent permeability from basolateral to apical (Papp B→A) at 90 min was 0.1 ×10⁻⁶ cm/s and the efflux ratio at 90 min stood at 0.33.
For `CCCCC(=O)Nc1ncnn2c([C@]3(C#N)O[C@H](COC(=O)C(C)C)[C@@H](O)[C@H]3O)ccc12` [Compound 276, ((2R,3S,4R,5R)-5-cyano-3,4-dihydroxy-5-(4-pentanamidopyrrolo[2,1-f][1,2,4]triazin-7-yl)tetrahydrofuran-2-yl)methyl isobutyrate] the same measures were 0.36 ×10⁻⁶ cm/s, 2.9 ×10⁻⁶ cm/s and 8.
Turning to `CNc1nc(N)nc2c1ncn2[C@@H]1O[C@H](COC(=O)C(C)C)[C@@H](OC(=O)CC2CCCCC2)[C@@]1(C)F` [Compound 195, ((2R,3R,4R,5R)-5-(2-amino-6-(methylamino)-9H-purin-9-yl)-3-(2-cyclohexylacetoxy)-4-fluoro-4-methyltetrahydrofuran-2-yl)methyl isobutyrate], the apical-to-basolateral permeability (Papp A→B) at 90 min came out at 6.3 ×10⁻⁶ cm/s, the Papp B→A at 90 min is 1.1 ×10⁻⁶ cm/s and the efflux ratio at 90 min stood at 0.18.
Turning to `CC(C)CC(=O)OC[C@H]1O[C@@](C#N)(c2ccc3c(NC(=O)[C@@H](N)Cc4ccc(F)cc4)ncnn23)[C@H](O)[C@@H]1O` [Compound 101, ((2R,3S,4R,5R)-5-(4-((S)-2-amino-3-(4-fluorophenyl)propanamido)pyrrolo[2,1-f][1,2,4]triazin-7-yl)-5-cyano-3,4-dihydroxytetrahydrofuran-2-yl)methyl 3-methylbutanoate], the Papp A→B at 90 min is 0.07 ×10⁻⁶ cm/s, the Papp B→A at 90 min is 13 ×10⁻⁶ cm/s and the efflux ratio at 90 min was found to be 175.
In the case of `CC(C)CC(=O)N[C@H](C(=O)OC[C@H]1O[C@@](C#N)(c2ccc3c(N)ncnn23)[C@H](O)[C@@H]1O)C(C)C` [Compound 255, [(2R,3S,4R,5R)-5-{4-aminopyrrolo[2,1-f][1,2,4]triazin-7-yl}-5-cyano-3,4-dihydroxyoxolan-2-yl]methyl (2S)-3-methyl-2-(3-methylbutanamido)butanoate], the Papp A→B at 90 min was found to be 2.1 ×10⁻⁶ cm/s, the basolateral-to-apical permeability (Papp B→A) at 90 min is 5.3 ×10⁻⁶ cm/s and the efflux ratio at 90 min was found to be 2.5.
As to `CCCCCOC(=O)Nc1ncnn2c([C@]3(C#N)O[C@H](CO)[C@@H](O)[C@H]3O)ccc12` [Compound 81, pentyl (7-((2R,3R,4S,5R)-2-cyano-3,4-dihydroxy-5-(hydroxymethyl)tetrahydrofuran-2-yl)pyrrolo[2,1-f][1,2,4]triazin-4-yl)carbamate], the Papp A→B at 90 min amounted to 1 ×10⁻⁶ cm/s, the Papp B→A at 90 min was 14.7 ×10⁻⁶ cm/s and the efflux ratio at 90 min was 14.
For `CC(C)[C@H](N)C(=O)OC[C@H]1O[C@@](C#N)(c2ccc3c(NC(=O)[C@@H](N)Cc4ccc(F)cc4)ncnn23)[C@H](O)[C@@H]1O` [Compound 94, ((2R,3S,4R,5R)-5-(4-((S)-2-amino-3-(4-fluorophenyl)propanamido)pyrrolo[2,1-f][1,2,4]triazin-7-yl)-5-cyano-3,4-dihydroxytetrahydrofuran-2-yl)methyl L-valinate], the apparent permeability from apical to basolateral (Papp A→B) at 90 min amounted to 0.07 ×10⁻⁶ cm/s, the Papp B→A at 90 min worked out at 0.64 ×10⁻⁶ cm/s and the efflux ratio at 90 min stood at 9.1.
Regarding `CCC(=O)OC[C@H]1O[C@@](C#N)(c2ccc3c(N)ncnn23)[C@H](O)[C@@H]1OCOC(=O)C(C)(C)C` [Compound 72, {[(2R,3S,4R,5R)-5-{4-aminopyrrolo[2,1-f][1,2,4]triazin-7-yl}-5-cyano-4-hydroxy-2-[(propanoyloxy)methyl]oxolan-3-yl]oxy}methyl 2,2-dimethylpropanoate], the apparent permeability from apical to basolateral (Papp A→B) at 90 min stood at 5.8 ×10⁻⁶ cm/s, the basolateral-to-apical permeability (Papp B→A) at 90 min was 3.2 ×10⁻⁶ cm/s and the efflux ratio at 90 min was found to be 0.55.
With `N#C[C@@]1(c2ccc3c(N)ncnn23)O[C@H](COC(=O)CC2CCCCCC2)[C@@H](O)[C@H]1O` [Compound 261, ((2R,3S,4R,5R)-5-(4-aminopyrrolo[2,1-f][1,2,4]triazin-7-yl)-5-cyano-3,4-dihydroxytetrahydrofuran-2-yl)methyl 2-cycloheptylacetate], the Papp A→B at 90 min amounted to 0.79 ×10⁻⁶ cm/s, the Papp B→A at 90 min was found to be 1.1 ×10⁻⁶ cm/s and the efflux ratio at 90 min was found to be 1.4.
For `CCC(=O)O[C@H]1[C@@H](O)[C@](C#N)(c2ccc3c(NC(=O)OCOC(=O)C(C)(C)C)ncnn23)O[C@@H]1COC(=O)[C@@H](N)C(C)C` [Compound 365, ((2R,3S,4R,5R)-5-cyano-4-hydroxy-5-(4-((((pivaloyloxy)methoxy)carbonyl)amino)pyrrolo[2,1-f][1,2,4]triazin-7-yl)-3-(propionyloxy)tetrahydrofuran-2-yl)methyl L-valinate], the Papp A→B at 90 min was 1.5 ×10⁻⁶ cm/s, the apparent permeability from basolateral to apical (Papp B→A) at 90 min is 4.1 ×10⁻⁶ cm/s and the efflux ratio at 90 min stood at 2.8.
With `CCC(=O)O[C@H]1[C@@H](O)[C@](C#N)(c2ccc3c(NC(=O)OCOC(C)=O)ncnn23)O[C@@H]1COC(=O)[C@@H](N)C(C)C` [Compound 364, ((2R,3S,4R,5R)-5-(4-(((acetoxymethoxy)carbonyl)amino)pyrrolo[2,1-f][1,2,4]triazin-7-yl)-5-cyano-4-hydroxy-3-(propionyloxy)tetrahydrofuran-2-yl)methyl L-valinate], the apparent permeability from apical to basolateral (Papp A→B) at 90 min was 1.8 ×10⁻⁶ cm/s, the Papp B→A at 90 min came out at 2 ×10⁻⁶ cm/s and the efflux ratio at 90 min was determined as 1.1.
With `CC(C)CC(=O)OC[C@H]1O[C@@](C#N)(c2ccc3c(N)ncnn23)[C@H](O)[C@@H]1OC(=O)C(C)C` [Compound 22, ((2R,3S,4R,5R)-5-(4-aminopyrrolo[2,1-f][1,2,4]triazin-7-yl)-5-cyano-4-hydroxy-3-(isobutyryloxy)tetrahydrofuran-2-yl)methyl 3-methylbutanoate], the apical-to-basolateral permeability (Papp A→B) at 90 min is 7 ×10⁻⁶ cm/s, the basolateral-to-apical permeability (Papp B→A) at 90 min came out at 10 ×10⁻⁶ cm/s and the efflux ratio at 90 min came to 1.5.
On to `CC(C)[C@H](N)C(=O)OC[C@H]1O[C@@](C#N)(c2ccc3c(N)ncnn23)[C@H](O)[C@@H]1OC(=O)CC1CCCCC1` [Compound 34, ((2R,3S,4R,5R)-5-(4-aminopyrrolo[2,1-f][1,2,4]triazin-7-yl)-5-cyano-3-(2-cyclohexylacetoxy)-4-hydroxytetrahydrofuran-2-yl)methyl L-valinate], for which the Papp A→B at 90 min was 1.6 ×10⁻⁶ cm/s, the Papp B→A at 90 min is 4.8 ×10⁻⁶ cm/s and the efflux ratio at 90 min turned out to be 3.
In the case of `CC(=O)Nc1ncnn2c([C@]3(C#N)O[C@H](COC(=O)[C@@H](N)C(C)(C)C)[C@@H](OC(=O)CC4CCCCC4)[C@H]3O)ccc12` [Compound 373, ((2R,3S,4R,5R)-5-(4-acetamidopyrrolo[2,1-f][1,2,4]triazin-7-yl)-5-cyano-3-(2-cyclohexylacetoxy)-4-hydroxytetrahydrofuran-2-yl)methyl (S)-2-amino-3,3-dimethylbutanoate], the Papp A→B at 90 min came to 24 ×10⁻⁶ cm/s, the basolateral-to-apical permeability (Papp B→A) at 90 min is 29 ×10⁻⁶ cm/s and the efflux ratio at 90 min amounted to 1.2.
Turning to `CC(=O)OCOC(=O)OC[C@H]1O[C@@](C#N)(c2ccc3c(NC(=O)[C@@H](N)Cc4ccc(F)cc4)ncnn23)[C@H](O)[C@@H]1O` [Compound 366, (((((2R,3S,4R,5R)-5-(4-((S)-2-amino-3-(4-fluorophenyl)propanamido)pyrrolo[2,1-f][1,2,4]triazin-7-yl)-5-cyano-3,4-dihydroxytetrahydrofuran-2-yl)methoxy)carbonyl)oxy)methyl acetate], the Papp A→B at 90 min was determined as 2.7 ×10⁻⁶ cm/s, the Papp B→A at 90 min stood at 1.1 ×10⁻⁶ cm/s and the efflux ratio at 90 min worked out at 0.39.

Staying with this data set, now noted: human; Caco-2 monolayer, apical to basolateral, 90-minute incubation; read-out: Papp, A-B.
Regarding `CCCC(=O)Nc1ncnn2c([C@]3(C#N)O[C@H](COC(=O)Cc4ccccc4)[C@@H](OC(=O)[C@@H](N)C(C)C)[C@H]3O)ccc12` [Compound 346, (2R,3S,4R,5R)-5-(4-butyramidopyrrolo[2,1-f][1,2,4]triazin-7-yl)-5-cyano-4-hydroxy-2-((2-phenylacetoxy)methyl)tetrahydrofuran-3-yl L-valinate], the Papp A→B at 90 min was determined as 1.6 ×10⁻⁶ cm/s.

The data set is the same for the next values; noted with them: human; Caco-2 monolayer, basolateral to apical, 90-minute incubation; read-out: Papp, B-A.
As to `CCCC(=O)Nc1ncnn2c([C@]3(C#N)O[C@H](COC(=O)Cc4ccccc4)[C@@H](OC(=O)[C@@H](N)C(C)C)[C@H]3O)ccc12` [Compound 346, (2R,3S,4R,5R)-5-(4-butyramidopyrrolo[2,1-f][1,2,4]triazin-7-yl)-5-cyano-4-hydroxy-2-((2-phenylacetoxy)methyl)tetrahydrofuran-3-yl L-valinate], the Papp B→A at 90 min was determined as 9 ×10⁻⁶ cm/s.

Staying with this data set, now noted: human; Caco-2 monolayer; ER>2 indicates potential efflux transporter substrate; read-out: ER (efflux ratio).
For `CCCC(=O)Nc1ncnn2c([C@]3(C#N)O[C@H](COC(=O)Cc4ccccc4)[C@@H](OC(=O)[C@@H](N)C(C)C)[C@H]3O)ccc12` [Compound 346, (2R,3S,4R,5R)-5-(4-butyramidopyrrolo[2,1-f][1,2,4]triazin-7-yl)-5-cyano-4-hydroxy-2-((2-phenylacetoxy)methyl)tetrahydrofuran-3-yl L-valinate], the efflux ratio at 90 min was 5.7.
